{"source": "patent US7351690B2", "about": "“Knockout identification of target-specific sites in peptides” (priority 2000, dated 2008)", "tested_on": "bombesin receptor", "test": "competitive binding assay, 125I-Bombesin, rat brain membranes", "conditions": "for % Inhibition: inhibition of 0.01 nM 125I-Bombesin binding, rat brain membranes, test concentration not given", "protocol": "Rat brain membranes were utilized as the source of bombesin receptor. The competitive binding assay was performed using a procedure as described by Moody T W, Perk C B, Rivier J, Brown, M R. (Proc Natl Acad Sci USA. 75:5372-5376, […]) and adapted to a 96 well format. An aliquot of membranes taken in assay buffer (50 mM Tris and HCl, pH 7.4 containing 1 mg/mL BSA and 2 μg/mL bacitracin) was incubated with 0.01 nM of ^125I-Bombesin with or without varying concentrations of the test compound for 60 min at 4° C. The incubation was terminated by rapid filtration of the assay mixture, followed by washing the filters with ice-cold buffer. The filters were dried and counted in a gamma counter for retained radioactivity. Non-specific binding was measured by including 1 μM Bombesin in the assay tube. The assay was performed in triplicate and results calculated to determine percentage inhibition of the ^125I-Bombesin binding to its receptors by a test compound. The parent polypeptide is shown in Table 6, with metallopeptides having Cys inserted as shown.", "note": "Square brackets hold non-standard residues; d marks the D form. Ends that are not written are not given here. pGlu = O=C1CC[C@@H](C(=O)O)N1; Nle = CCCC[C@H](N)C(=O)O"}
{"substance": "Ac-Ala-Gln-Cys-Arg-Leu-Gly-Asn-Gln-Trp-Ala-Val-Gly-His-Leu-Nle-NH2 (Ac-AQCRLGNQWAVGHL[Nle]-NH2; also: oxorhenium(V) N3S1 tetradentate complex via Cys) [6-13]", "values": [{"measurement": "% Inhibition", "result": 99, "unit": "%"}]}
{"substance": "D-Phe-Gln-Cys-Trp-Ala-Val-Gly-His-Leu-Leu-NH2 ([dF]QCWAVGHLL-NH2; also: oxorhenium(V) N3S1 tetradentate complex via Cys) [8-8]", "values": [{"measurement": "% Inhibition", "result": 62, "unit": "%"}]}
{"substance": "Pyr-Gln-Arg-Leu-Gly-Asn-Gln-Trp-Ala-Val-Gly-His-Leu-Nle-Cys-NH2 ([pGlu]QRLGNQWAVGHL[Nle]C-NH2; numbers in words are those of the source; also: rhenium complex (oxorhenium(V) N3S1 tetradentate chelate via Re=O core)) [6-1]", "values": [{"measurement": "% Inhibition", "result": 82, "unit": "%"}]}
{"substance": "D-Phe-Gln-Trp-Ala-Cys-Gly-His-Leu-Leu-NH2 ([dF]QWACGHLL-NH2; also: oxorhenium(V) N3S1 tetradentate complex via Cys) [9-5]", "values": [{"measurement": "binding to bombesin receptor, in words", "result": "least activity"}, {"measurement": "% Inhibition", "result": 17, "unit": "%"}]}
{"substance": "D-Phe-Gln-Trp-Val-Cys-His-Leu-Leu-NH2 ([dF]QWVCHLL-NH2; also: oxorhenium(V) N3S1 chelate complex (Re=O)) [12-4]", "values": [{"measurement": "% Inhibition", "result": 5, "unit": "%"}]}
{"substance": "Pyr-Gln-Arg-Leu-Gly-Asn-Gln-Trp-Ala-Val-Gly-His-Cys-Leu-Nle-NH2 ([pGlu]QRLGNQWAVGHCL[Nle]-NH2; numbers in words are those of the source; also: rhenium complex (oxorhenium(V) N3S1 chelate via Cys)) [6-3]", "values": [{"measurement": "% Inhibition", "result": 71, "unit": "%"}]}
{"substance": "D-Phe-Gln-Trp-Val-Cys-Val-His-Leu-Leu-NH2 ([dF]QWVCVHLL-NH2; not fully specified (bridges); printed as D-Phe-Gln-Trp-Val-Cys-Val-His-Leu-Leu-NH2; also: oxorhenium(V) N3S1 chelate complex (Re=O)) [12-3]", "values": [{"measurement": "% Inhibition", "result": 14, "unit": "%"}]}
{"substance": "Pyr-Gln-Arg-Leu-Gly-Asn-Gln-Trp-Ala-Val-Cys-Gly-His-Leu-Nle-NH2 ([pGlu]QRLGNQWAVCGHL[Nle]-NH2; numbers in words are those of the source; also: oxorhenium(V) N3S1 chelate (Re=O) with Cys) [6-5]", "values": [{"measurement": "% Inhibition", "result": 67, "unit": "%"}]}
{"substance": "Pyr-Gln-Arg-Leu-Gly-Asn-Gln-Trp-Cys-Val-Gly-His-Leu-Nle-NH2 (QRLGNQWCVGHL; N-terminal pyroglutamate; C-terminal Nle-amide; printed: Gln-Arg-Leu-Gly-Asn-Gln-Trp-Cys-Val-Gly-His-Leu-) [7-6]", "values": [{"measurement": "% Inhibition", "result": 91, "unit": "%"}]}
{"substance": "Trp-Ala-Val-Cys-His-Leu-Leu-NH2 (WAVCHLL-NH2; not fully specified (bridges); printed as Trp-Ala-Val-Cys-His-Leu-Leu-NH2; also: oxorhenium(V) N3S1 chelate (Re=O) with Cys) [11-5]", "values": [{"measurement": "% Inhibition", "result": 18, "unit": "%"}]}
{"substance": "Ac-Ala-Gln-Cys-Leu-Gly-Asn-Gln-Trp-Ala-Val-Gly-His-Leu-Nle-NH2 (Ac-AQCLGNQWAVGHL[Nle]-NH2; also: oxorhenium(V) N3S1 tetradentate complex via Cys) [7-12]", "values": [{"measurement": "% Inhibition", "result": 96, "unit": "%"}]}
{"substance": "Pyr-Gln-Arg-Leu-Gly-Asn-Cys-Trp-Ala-Val-Gly-His-Leu-Nle-NH2 (QRLGNCWAVGHL; N-term pyroglutamate; Nle-NH2; rhenium complex; printed: Gln-Arg-Leu-Gly-Asn-Cys-Trp-Ala-Val-Gly-His-Leu-) [7-8]", "values": [{"measurement": "% Inhibition", "result": 84, "unit": "%"}]}
{"substance": "D-Phe-Gln-Trp-Ala-Val-Cys-His-NH2 ([dF]QWAVCH-NH2; also: oxorhenium(V) N3S1 chelate via Cys (Re(V)=O)) [11-2]", "values": [{"measurement": "% Inhibition", "result": 25, "unit": "%"}]}
{"substance": "D-Phe-Gln-Trp-Ala-Val-Gly-His-Leu-Cys-NH2 ([dF]QWAVGHLC-NH2; also: rhenium complex (oxorhenium(V) N3S1 chelate via Cys)) [9-1]", "values": [{"measurement": "% Inhibition", "result": 86, "unit": "%"}]}
{"substance": "D-Phe-Gln-Trp-Ala-Val-Gly-His-Cys-Leu-Leu-NH2 ([dF]QWAVGHCLL-NH2; also: rhenium complex (oxorhenium(V) N3S1 chelate via Cys)) [8-3]", "values": [{"measurement": "% Inhibition", "result": 49, "unit": "%"}]}
{"substance": "Pyr-Gln-Arg-Cys-Gly-Asn-Gln-Trp-Ala-Val-Gly-His-Leu-Nle-NH2 (QRCGNQWAVGHL; N-term pyroglutamate; Nle-NH2; rhenium complex; printed: Gln-Arg-Cys-Gly-Asn-Gln-Trp-Ala-Val-Gly-His-Leu-) [7-11]", "values": [{"measurement": "% Inhibition", "result": 95, "unit": "%"}]}
{"substance": "D-Phe-Gln-Trp-Val-Cys-Gly-His-Leu-Leu-NH2 ([dF]QWVCGHLL-NH2; also: oxorhenium(V) N3S1 chelate complex (Re=O)) [12-1]", "values": [{"measurement": "% Inhibition", "result": 2, "unit": "%"}]}
{"substance": "Pyr-Gln-Arg-Leu-Gly-Asn-Gln-Trp-Ala-Val-Cys-His-Leu-Nle-NH2 (QRLGNQWAVCHL; N-terminal pyroglutamate; C-terminal Nle-amide; printed: Gln-Arg-Leu-Gly-Asn-Gln-Trp-Ala-Val-Cys-His-Leu-) [7-4]", "values": [{"measurement": "% Inhibition", "result": 81, "unit": "%"}]}
{"substance": "Pyr-Gln-Arg-Cys-Leu-Gly-Asn-Gln-Trp-Ala-Val-Gly-His-Leu-Nle-NH2 ([pGlu]QRCLGNQWAVGHL[Nle]-NH2; numbers in words are those of the source; also: oxorhenium(V) N3S1 chelate (Re(V)=O)) [6-12]", "values": [{"measurement": "% Inhibition", "result": 97, "unit": "%"}]}
{"substance": "D-Phe-Gln-Trp-Ala-Val-Cys-NH2 ([dF]QWAVC-NH2; also: oxorhenium(V) N3S1 chelate via Cys (Re(V)=O)) [11-3]", "values": [{"measurement": "binding to bombesin receptor, in words", "result": "high negative percent inhibition"}, {"measurement": "% Inhibition", "result": "−81", "unit": "%"}]}
{"substance": "Trp-Ala-Val-Cys-His-Leu-NH2 (WAVCHL-NH2; not fully specified (bridges); printed as Trp-Ala-Val-Cys-His-Leu-NH2; also: oxorhenium(V) N3S1 chelate (Re=O) with Cys) [11-8]", "values": [{"measurement": "% Inhibition", "result": 13, "unit": "%"}]}
{"substance": "Pyr-Gln-Arg-Leu-Gly-Asn-Cys-Gln-Trp-Ala-Val-Gly-His-Leu-Nle-NH2 ([pGlu]QRLGNCQWAVGHL[Nle]-NH2; numbers in words are those of the source; also: oxorhenium(V) N3S1 chelate (Re(V)=O)) [6-9]", "values": [{"measurement": "% Inhibition", "result": 91, "unit": "%"}]}
{"substance": "Trp-Ala-Val-Cys-NH2 (WAVC-NH2; not fully specified (bridges); printed as Trp-Ala-Val-Cys-NH2; also: oxorhenium(V) N3S1 chelate (Re=O) with Cys) [11-14]", "values": [{"measurement": "% Inhibition", "result": 8, "unit": "%"}]}
{"substance": "Pyr-Gln-Arg-Leu-Gly-Asn-Gln-Trp-Ala-Val-Gly-His-Cys-Nle-NH2 (QRLGNQWAVGHC; N-term pyroglutamate; Nle-NH2; rhenium complex; printed: Gln-Arg-Leu-Gly-Asn-Gln-Trp-Ala-Val-Gly-His-Cys-) [7-2]", "values": [{"measurement": "% Inhibition", "result": 66, "unit": "%"}]}
{"substance": "Pyr-Gln-Arg-Leu-Gly-Asn-Gln-Cys-Trp-Ala-Val-Gly-His-Leu-Nle-NH2 ([pGlu]QRLGNQCWAVGHL[Nle]-NH2; numbers in words are those of the source; also: oxorhenium(V) N3S1 chelate (Re(V)=O)) [6-8]", "values": [{"measurement": "% Inhibition", "result": 75, "unit": "%"}]}
